Test results: the METLIN SMRT retention time set (Domingo-Almenara et al. 2019)

Experiment: gradient 5% acetonitrile 3 min, to 50% in 2 min, to 85% in 15 min, held 3 min, 100 µL/min
Conditions: column: Zorbax Extend-C18 2.1 x 50 mm; eluents: water / acetonitrile, 0.1% formic acid
In short: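 Each retention time is based on an adduct peak selected computationally and verified by manual inspection. Measurements used HPLC–quadrupole time-of-flight mass spectrometry in positive and negative ionization mode on mixtures of ~100 pure standards. Chromatography ran on a Zorbax Extend-C18 column (2.1 × 50 mm, 1.8 μm) at 100 μL/min with water and acetonitrile, each containing 0.1% formic acid, and dead and dwell volumes of 40 μL and 900 μL.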

Compound	RP-LC retention time [s]
O=C(C1=CN(c2cccc(F)c2)c2ccccc2S1(=O)=O)N1CCOCC1	730
COC(=O)c1c(NCC(C)C)c2cccc(Cl)c2[nH]c1=O	792
COc1ccc(-c2nc3ncc4c(=O)n(CCc5c[nH]c6ccccc56)ccc4n3n2)cc1	940
CCC(=O)N1CCc2cc(N3CC(C(=O)Nc4cc(C)ccc4F)CC3=O)ccc21 (stereo not drawn)	768
CCC(=O)Nc1ccc(-n2cnc(C(=O)NC(C)c3ccccc3)c2)nc1 (stereo not drawn)	722
Cc1cc(C)cc(S(=O)(=O)N2CCC(c3nc(C(=O)N(C)C)c(C)o3)CC2)c1	882
CCOC(=O)Cc1ccc(NC(=O)N2CCN(c3nc4ccccc4nc3C(F)(F)F)CC2)cc1	1080
CCOc1ccccc1NC(=O)Nc1cccc(-c2ccc(N3CCOCC3)nn2)c1	670
COc1ccc(NS(=O)(=O)c2cc3n(c2)CCN(C(C)C)C3=O)cc1	717
CCN(CCCNC(=O)C1CCCN(c2ncnc3c2oc2ccccc23)C1)c1ccccc1 (stereo not drawn)	649
COc1ccc(CCS(=O)(=O)NCC2CCN(C(=O)c3cccn(C)c3=O)CC2)cc1	638
CCOc1ccc(C(c2c(O)cc(C)n(CCOC)c2=O)N2CCN(c3ccccn3)CC2)cc1 (stereo not drawn)	728
CCCn1cc(CCNS(=O)(=O)c2cccc(Cl)c2)c2cccnc21	804
Cc1ccc(CNC(=O)c2ccc3c(c2)N(C)C(=O)c2ccccc2O3)cc1	931
COc1ccc(-c2noc(C3CCCN3C(=O)c3ccc4c(c3)OCO4)n2)cc1OC (stereo not drawn)	836
Cc1c(C(=O)NC2CCCC2)cnn1-c1cc(-c2nc(C(C)(C)C)no2)ccn1	1130
O=C(CN1C(=O)C2CCCCN2c2ccc(C(=O)N3CCCCC3)cc21)NC1CCCC1 (stereo not drawn)	828
CC(=O)Nc1c(C)noc1/C=C\c1ccc(C)c(S(=O)(=O)N2CCN(c3ccccn3)CC2)c1	666
Cc1ccc(CNC(=O)c2cc3sccc3n2Cc2ccc(Cl)cc2)cc1	1200
CCC(C)NC(=O)N1CC(n2cc(C(=O)N(C)CCOC)nn2)C1 (stereo not drawn)	620
CCN(CC)CCCNC(=O)C1CCCN(c2nc3ccccc3n(Cc3ccccc3)c2=O)C1 (stereo not drawn)	726
Cc1nc2nc(-c3ccc(C(C)(C)C)cc3)nn2c(C)c1CC(=O)N1CCN(C)CC1	682

Compound	RP-LC retention time [s]
CCCCN1C(=O)C(C)(C(=O)Nc2ccc(F)cc2)Oc2cccnc21 (stereo not drawn)	1030
COc1ccc(-n2ccn3cc(-c4ccc(F)cc4)nc3c2=O)cc1Cl	859
COCCN1C(=O)[C@H]2CN(Cc3ccccc3C(F)(F)F)C[C@H]2C1=O	849
Cc1cc2c(cc1S(=O)(=O)N1CCCC1C(=O)N1CCc3ccccc31)OCC(=O)N2 (stereo not drawn)	788
COc1ccccc1N1CCN(C(=O)C2CCN(c3nnc(-c4ccccc4)o3)CC2)CC1	807
CCCN1CCN(c2cc(C(=O)O)c3cc(NS(=O)(=O)c4ccc(C)cc4C)ccc3n2)CC1	937
CCOC1CCN(C(=O)NC2CCCC2)CC1	698
COc1ccc(-c2noc(C3CC(=O)N(c4ccc5c(c4)OCO5)C3)n2)c(OC)c1 (stereo not drawn)	816
O=C(Nc1c(-c2ccccc2)nc2ccccn12)c1ccc([N+](=O)[O-])cc1	654
CN(C)c1ccc(C(=O)N2CCc3cn(C)c4cccc(c34)C2)cc1	671
Cc1ccc(Nc2c(-c3ccc(C(=O)O)cc3)nc3cnccn23)cc1	766
CC(=O)N1CCC(c2nc(-c3ccc(CNC(=O)C4CC4)s3)no2)CC1	661
CCCn1ccc2sc(C)c(C(=O)NCCN3CCCCC3CC)c2c1=O (stereo not drawn)	673
COc1ccc(/C=C/C(=O)c2ccc(OC)cc2OC)cc1	1100
CCCn1cc(CCNC(=O)c2ccccc2C)c2cccnc21	748
CC1Cc2ccccc2N1C(=O)CCC(=O)N1CCCN(c2cc(=O)n(C)c(=O)n2C)CC1 (stereo not drawn)	677
CCNC(=O)Nc1ccc(OCC(=O)NC(C)c2ccc(OC)cc2)nc1 (stereo not drawn)	701
COc1cc(NC(=O)c2ccc3cccc(O)c3n2)cc(OC)c1OC	880
Cc1ccc(NC(=O)Cn2cccc2-c2nnc(C3CCC3)o2)cc1C	985
COC(=O)C1=CN(c2cccc(OC)c2)c2cc(Br)ccc2S1(=O)=O	942
O=C(CCn1cnc2cc(-c3noc(-c4ccc(F)cc4)n3)ccc21)N1CCCC1	771
Cc1cccc(CN2N=C(C(=O)N3CCCC3)S(=O)(=O)c3ccccc32)c1	892

Compound	RP-LC retention time [s]
O=c1ccn(-c2cccc(F)c2)nc1-c1nc(-c2ccc(F)c(Br)c2)no1	1040
CSc1ccc(-c2noc(CN3C(=O)COc4cc(Cl)ccc43)n2)cc1	1170
Cc1ccc(CNC(=O)Nc2c(-c3ccccc3)nc3ccccn23)cc1	662
Cc1ccc(NC(=O)NCC2CCOCC2)c(C)c1	713
CNC(=O)[C@@H]1CN(S(=O)(=O)c2cnc[nH]2)C[C@H]1c1n[nH]c(C)n1	530
Cc1cnc(C(=O)N2CC(c3nc(CCOCC4CC4)no3)C2)cn1	706
CCC(=O)Nc1ccc(CCc2nc3ccc(C(=O)NCCCOC)cc3[nH]2)cc1	596
Cc1ccc(CNC(=O)C2(C)CN(S(C)(=O)=O)CC(=O)N2c2cccc(F)c2)cc1 (stereo not drawn)	818
COCCNS(=O)(=O)c1cc(-c2nc(C)cs2)n(CC(=O)N2CCCCC2)c1	755
Cc1cc(C)n(-c2ccc(Nc3ccc(NS(=O)(=O)c4cccc(F)c4)cc3)nn2)n1	817
CCOC(=O)c1ccccc1NC(=O)Cn1nc2c(Oc3ccccc3)nccn2c1=O	1000
CCNC(=O)C1CCc2sc(C(=O)N(C)C)cc2C1 (stereo not drawn)	617
Cc1nnc(NC(=O)CSc2nnc(-c3ccc(Cl)cc3)o2)s1	772
COc1cccc2cc(C(=O)N3CCN(c4ccccn4)CC3)oc12	576
O=S(=O)(C1CC1)N1CCC(c2nc(-c3ccncc3)no2)C1 (stereo not drawn)	670
Cc1[nH]c(C)c(S(=O)(=O)N2CCC(C(=O)Nc3ccc(F)cc3F)CC2)c1C(=O)N1CCCC1	676
CCc1ccc(NC(=O)NCc2ccnc(N3CCSCC3)c2)cc1	668
Cc1cccc(C)c1Nc1c(-c2ccccc2O)nc2ncccn12	705
CCOC(=O)c1c(C)n(C)c2ccc(OC(C)=O)cc12	889
O=C(Cc1nc(-c2ccccn2)n[nH]1)Nc1cccc(F)c1	635
Cc1ccc2ncn(C3CCN(C(=O)Nc4ccc(C)c(Cl)c4)CC3)c(=O)c2c1	888
CCCCS(=O)(=O)N1CC=C(c2cn(C)c3ncccc23)CC1	879

Compound	RP-LC retention time [s]
CN(CCc1noc(-c2ccccc2)n1)C(=O)Nc1ccc(F)c(Cl)c1	954
COC(=O)c1cc(OCC(=O)Nc2ccccc2F)c2cc(OC)c(OC)cc2n1	756
CC(=O)N1c2ccc(S(=O)(=O)N3CCCC3)cc2CC1C(=O)NCc1ccc(N(C)C)cc1 (stereo not drawn)	620
NCC(O)COCC1COc2ccccc2O1 (stereo not drawn)	549
Cc1nc(-c2ccc(Cl)cc2)sc1CCNC(=O)c1ccco1	946
CC1CCN(C2=NCCN2C(=O)c2c(F)cccc2F)CC1	660
COc1ccc(C)cc1Nc1nc(C(=O)Nc2cccnc2)cs1	637
O=C(Nc1ccc(F)c(F)c1)C1CCCN(S(=O)(=O)Cc2ccc(F)cc2)C1 (stereo not drawn)	990
O=C(C1CCN(Cc2cc3ccccc3n2Cc2ccccc2)CC1)N1CCN(C2CCCCC2)CC1	634
CC(C)Oc1ccc(CNS(=O)(=O)c2cc3c(s2)CCN(C(=O)C2CCC2)C3)cc1	1010
Cc1nnc2cc(N3CCN(C(=O)Nc4ccc(F)cc4F)CC3)cnn12	597
CCN(CC)C(=O)c1cnc2snc(C)c2c1N1CCC(C(=O)Nc2ccc(Br)cc2)CC1	990
CCN(CC)CCCNC(=O)CCc1c(-c2ccc(Br)cc2)nc2ccccn12	559
COC(=O)c1ccc(Cl)cc1NC(=O)N(C)Cc1nc2cc(C(=O)N(C)C)ccc2n1C	705
Cc1ccc(N2CC(C(=O)N(C)C)CC2=O)cc1 (stereo not drawn)	673
COc1ccccc1-c1noc(-c2nnn(Cc3nc(-c4cccc(C)c4)oc3C)c2C)n1	1160
Cc1ccc(C)c(CS(=O)(=O)N2CCC(CN3CCCCCC3)CC2)c1	700
O=C(NC1(c2nc(-c3ccccn3)no2)CCCCC1)c1ccccc1	848
CC(C)n1cc(C2=CCN(S(=O)(=O)Cc3cccc(Cl)c3)CC2)c2cccnc21	1130
COC(=O)c1ccc(N2C=C(C#N)S(=O)(=O)c3ccc(Cl)cc32)cc1	954
CC(=O)N1CCc2cc(CNS(=O)(=O)c3ccc(Br)cc3)ccc21	830
Cc1cc2c(cc1S(=O)(=O)N1CCCC1C(=O)Nc1ccc(F)cc1)OC(C)C(=O)N2 (stereo not drawn)	775
